ChEMBL document CHEMBL2073966, “Cloning and functional characterization of a new multispecific organic anion transporter, OAT-K2, in rat kidney” (Mol Pharmacol, 1999)

molecular target: T1, Solute carrier organic anion transporter family member 1A3 (Rattus norvegicus, UniProt P70502); assay: TP_TRANSPORTER: inhibition of Taurocholate uptake in OAT-K2-expressing MDCK cells; format: functional, cell-based; conditions: dog
T1 sequence (P70502 whole entry): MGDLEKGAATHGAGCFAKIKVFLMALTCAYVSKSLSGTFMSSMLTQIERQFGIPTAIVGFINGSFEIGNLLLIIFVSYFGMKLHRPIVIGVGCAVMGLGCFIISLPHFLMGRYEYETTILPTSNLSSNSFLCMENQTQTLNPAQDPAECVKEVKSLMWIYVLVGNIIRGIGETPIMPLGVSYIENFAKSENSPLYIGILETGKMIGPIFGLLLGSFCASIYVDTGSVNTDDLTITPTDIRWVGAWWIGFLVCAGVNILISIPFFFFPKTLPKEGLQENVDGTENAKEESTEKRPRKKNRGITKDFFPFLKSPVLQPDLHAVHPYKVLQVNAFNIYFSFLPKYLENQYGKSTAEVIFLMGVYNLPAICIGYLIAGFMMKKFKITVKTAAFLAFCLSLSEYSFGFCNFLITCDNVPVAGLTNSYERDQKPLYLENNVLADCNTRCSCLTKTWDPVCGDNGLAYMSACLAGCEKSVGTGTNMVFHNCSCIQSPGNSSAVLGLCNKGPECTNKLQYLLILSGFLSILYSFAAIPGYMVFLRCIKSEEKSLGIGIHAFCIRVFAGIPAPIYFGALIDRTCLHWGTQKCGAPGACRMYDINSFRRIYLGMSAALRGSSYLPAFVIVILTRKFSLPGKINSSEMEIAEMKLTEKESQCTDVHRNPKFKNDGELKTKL

Structure (SMILES) | Activity
C[C@H](CCC(=O)NCCS(=O)(=O)O)[C@H]1CC[C@H]2[C@@H]3[C@H](O)C[C@@H]4C[C@H](O)CC[C@]4(C)[C@H]3CC[C@]12C [TAUROCHENODEOXYCHOLATE] | inhibitor [+]
C[C@H](CCC(=O)NCC(=O)O)[C@H]1CC[C@H]2[C@@H]3[C@H](O)C[C@@H]4C[C@H](O)CC[C@]4(C)[C@H]3CC[C@]12C [GLYCOCHENODEOXYCHOLATE] | inhibitor [+]
C[C@H](CCC(=O)NCC(=O)O)[C@H]1CC[C@H]2[C@@H]3[C@H](O)C[C@@H]4C[C@H](O)CC[C@]4(C)[C@H]3C[C@H](O)[C@]12C [GLYCOCHOLIC ACID] | inhibitor [+]
C[C@]12CC[C@@H]3c4ccc(O)cc4CC[C@H]3[C@@H]1C[C@@H](O)[C@@H]2O [ESTRIOL] | inhibitor [+]
C[C@]12CC[C@H]3[C@@H](CCC4=CC(=O)CC[C@@]43C)[C@@H]1CC[C@@H]2O [TESTOSTERONE] | inhibitor [+]
C[C@H](CCC(=O)O)[C@H]1CC[C@H]2[C@@H]3[C@@H](O)C[C@@H]4C[C@H](O)CC[C@]4(C)[C@H]3CC[C@]12C [URSODIOL] | inhibitor [+]
C[C@]12CC[C@@H]3c4ccc(O)cc4CC[C@H]3[C@@H]1CC[C@@H]2O [ESTRADIOL] | inhibitor [+]
COc1ccc2c(c1)c(CC(=O)O)c(C)n2C(=O)c1ccc(Cl)cc1 [INDOMETHACIN] | inhibitor [+]
CCCN(CCC)S(=O)(=O)c1ccc(C(=O)O)cc1 [PROBENECID] | inhibitor [+]
C[C@]12C=CC(=O)C=C1CC[C@@H]1[C@@H]2[C@@H](O)C[C@@]2(C)[C@H]1CC[C@]2(O)C(=O)CO [PREDNISOLONE] | inhibitor [+]
O=C1OC(c2ccc(O)c(S(=O)(=O)[O-])c2)(c2ccc(O)c(S(=O)(=O)[O-])c2)c2c(Br)c(Br)c(Br)c(Br)c21.[Na+].[Na+] [SULFOBROMOPHTHALEIN SODIUM] | inhibitor [+]
C[C@@H]1C[C@H]2[C@@H]3CCC4=CC(=O)C=C[C@]4(C)[C@@]3(F)[C@@H](O)C[C@]2(C)[C@@]1(O)C(=O)CO [DEXAMETHASONE] | inhibitor [+]
CC(=O)S[C@@H]1CC2=CC(=O)CC[C@]2(C)[C@H]2CC[C@@]3(C)[C@@H](CC[C@@]34CCC(=O)O4)[C@H]12 [SPIRONOLACTONE] | inhibitor [+]
C[C@H](CCC(=O)O)[C@H]1CC[C@H]2[C@@H]3CC[C@@H]4C[C@H](O)CC[C@]4(C)[C@H]3C[C@H](O)[C@]12C [DEOXYCHOLIC ACID] | inhibitor [+]
C[C@H](CCC(=O)NCCS(=O)(=O)O)[C@H]1CC[C@H]2[C@@H]3CC[C@@H]4C[C@H](O)CC[C@]4(C)[C@H]3C[C@H](O)[C@]12C [TAURODEOXYCHOLIC ACID] | inhibitor [+]

molecular target: T1, Solute carrier organic anion transporter family member 1A3; assay: TP_TRANSPORTER: uptake in OAT-K2-expressing MDCK cells; format: functional, cell-based; conditions: dog

Structure (SMILES) | Activity
CCCCC[C@H](O)/C=C/[C@H]1[C@H](O)CC(=O)[C@@H]1C/C=C\CCCC(=O)O [DINOPROSTONE] | substrate [+]

molecular target: T1, Solute carrier organic anion transporter family member 1A3; assay: TP_TRANSPORTER: uptake in Xenopus laevis oocytes; format: functional, cell-based; conditions: oocyte

Structure (SMILES) | Activity
Nc1nc2ncc(CNc3ccc(C(=O)N[C@@H](CCC(=O)O)C(=O)O)cc3)nc2c(=O)[nH]1 [FOLIC ACID] | substrate [+]
CCCCC[C@H](O)/C=C/[C@H]1[C@H](O)CC(=O)[C@@H]1C/C=C\CCCC(=O)O [DINOPROSTONE] | substrate [+]
CN(Cc1cnc2nc(N)nc(N)c2n1)c1ccc(C(=O)N[C@@H](CCC(=O)O)C(=O)O)cc1 [METHOTREXATE] | substrate [+]
